Assay results taken from patent US20040058956A1, “Pharmaceutical composition having an improved water solubility” (priority 2000, published 2004).

Row | Structure (SMILES) | melting point [°C]
1 | OCCc1nccn1CCCc1ccc(OCc2coc(/C=C/c3ccc(F)cc3F)n2)cc1 [B20, 2-[1-[3-[4-[[2-[(E)-2-(2,4-difluorophenyl)ethenyl]-1,3-oxazol-4-yl]methoxy]phenyl]propyl]-1H-imidazol-2-yl]-1-ehtanol] | 94 to 96
2 | CCc1ccc(/C=C/c2nc(COc3ccc(CCCCn4ccnc4CCO)cc3)co2)cc1 [B13, 2-[1-[4-[4-[[2-[(E)-2-(4-ethylphenyl)ethenyl]-1,3-oxazol-4-yl]methoxy]phenyl]butyl]-1H-imidazol-2-yl]-1-ethanol] | 94 to 95
3 | Cc1cccc(/C=C/c2nc(COc3ccc(CCCCn4ccnc4CCO)cc3)co2)c1 [B11, 2-[1-[4-[4-[[2-[(E)-2-(3-methylphenyl)ethenyl]-1,3-oxazol-4-yl]methoxy]phenyl]butyl]-1H-imidazol-2-yl]-1-ethanol] | 109 to 111
4 | FC(F)(F)c1ccc(/C=C/c2nc(COc3ccc(CCCn4ccnn4)cc3)co2)cc1 [B5, 1-(3-{4-[(2-{(E)-2-[4-(trifluoromethyl)phenyl]ethenyl}-1,3-oxazol-4-yl)methoxy]phenyl}propyl)-1H-1,2,3-triazole] | 157 to 158
5 | OCCc1nccn1CCCCc1ccc(OCc2coc(/C=C/c3ccc(Br)cc3)n2)cc1 [B16, 2-[1-[4-[4-[[2-[(E)-2-(4-bromophenyl)ethenyl]-1,3-oxazol-4-yl]methoxy]phenyl]butyl]-1H-imidazol-2-yl]-1-ethanol] | 149 to 150
6 | Fc1ccc(/C=C/c2nc(COc3cccc(CCCn4ccnn4)c3)co2)c(F)c1 [B8, 1-{3-[3-({2-[(E)-2-(2,4-difluorophenyl)ethenyl]-1,3-oxazol-4-yl}methoxy)phenyl]propyl}-1H-1,2,3-triazole] | 89 to 90
7 | Cc1cccc(/C=C/c2nc(COc3ccc(CCCCn4ccnc4CC(O)CO)cc3)co2)c1 (stereo not shown) [B22, 3-(1-{4-[4-({2-[(E)-2-(3-methylpheyl)ethenyl]-1,3-oxazol-4-yl}methoxy)phenyl]butyl}-1H-imidazol-2-yl)-1,2-propanediol] | 102 to 104
8 | Cc1ccc(/C=C/c2nc(COc3ccc(CCCCn4ccnc4CCO)cc3)co2)cc1 [B10, 2-[1-[4-[4-[[2-[(E)-2-(4-methylphenyl)ethenyl]-1,3-oxazol-4-yl]methoxy]phenyl]butyl]-1H-imidazol-2-yl]-1-ethanol] | 108 to 109
9 | OCCc1nccn1CCCCc1ccc(OCc2coc(/C=C/c3ccc(F)cc3)n2)cc1 [B14, 2-(1-{4-[4-({2-[(E)-2-(4-fluorophenyl)ethenyl]-1,3-oxazol-4-yl}methoxy)phenyl]butyl}-1H-imidazol-2-yl)-1-ethanol] | 130 to 132
10 | Fc1ccc(/C=C/c2nc(COc3ccc(CCCCn4ccnn4)cc3)co2)c(F)c1 [B7, 1-{4-[4-({2-[(E)-2-(2,4-difluorophenyl)ethenyl]-1,3-oxazol-4-yl}methoxy)phenyl]butyl}-1H-1,2,3-triazole] | 115 to 117
11 | Fc1ccc(/C=C/c2nc(COc3cccc(CCCn4ccnn4)c3)co2)cc1 [B3, 1-{3-[3-({2-[(E)-2-(4-fluorophenyl)ethenyl]-1,3-oxazol-4-yl}methoxy)phenyl]propyl}-1H-1,2,3-triazole] | 105 to 106
12 | OCCc1nccn1CCCCc1ccc(OCc2coc(/C=C/c3ccc(Cl)cc3)n2)cc1 [B15, 2-[1-[4-[4-[[2-[(E)-2-(4-chlorophenyl)ethenyl]-1,3-oxazol-4-yl]methoxy]phenyl]butyl]-1H-imidazol-2-yl]-1-ethanol] | 127 to 128

Results, then the compound that gave them:

Row | melting point [°C] | Structure (SMILES)
13 | 114 to 116 | OCC(O)Cc1nccn1CCCCc1ccc(OCc2coc(/C=C/c3ccc(F)cc3)n2)cc1 (stereo not shown) [B23, 3-(1-{4-[4-({2-[(E)-2-(4-fluorophenyl)ethenyl]-1,3-oxazol-4-yl}methoxy)phenyl]butyl}-1H-imidazol-2-yl)-1,2-propanediol]
14 | 123 to 125 | OCC(O)Cc1nccn1CCCCc1ccc(OCc2coc(/C=C/c3c(F)cccc3F)n2)cc1 (stereo not shown) [B28, 3-[1-[4-[4-[[2-[(E)-2-(2,6-difluorophenyl)ethenyl]-1,3-oxazol-4-yl]methoxy]phenyl]butyl]-1H-imidazol-2-yl]-1,2-propanediol]
15 | 92 to 94 | OCC(O)Cc1nccn1CCCc1cccc(OCc2coc(/C=C/c3ccc(F)cc3F)n2)c1 (stereo not shown) [B27, 3-(1-{3-[3-({2-[(E)-2-(2,4-difluorophenyl)ethenyl]-1,3-oxazol-4-yl}methoxy)phenyl]propyl}1H-imidazol-2-yl)-1,2-propanediol]
16 | 142 to 143 | OCC(O)Cc1nccn1CCCCc1ccc(OCc2coc(/C=C/c3ccc(C(F)(F)F)cc3)n2)cc1 (stereo not shown) [B24, 3-[1-(4-{4-[(2-{(E)-2-{4-(trifluoromethyl)phenyl}ethenyl}-1,3-oxazol-4-yl)methoxy]phenyl}butyl]-1H-imidazol-2-yl]-1,2-propanediol]
17 | 102 to 104 | OCC(O)Cc1nccn1CCCc1cccc(OCc2coc(/C=C/c3ccc(C(F)(F)F)cc3)n2)c1 (stereo not shown) [B25, 3-[1-(3-{3-[(2-{(E)-2-[4-(trifluoromethyl)phenyl]ethenyl}-1,3-oxazol-4-yl)methoxy]phenyl}propyl)-1H-imidazol-2-yl]-1,2-propanediol]
18 | 93 to 95 | OCCc1nccn1CCCCc1ccc(OCc2coc(/C=C/c3ccc(F)cc3F)n2)cc1 [Reference Example B19, 2-[1-[4-[4-[[2-[(E)-2-(2,4-difluorophenyl)ethenyl]-1,3-oxazol-4-yl]methoxy]phenyl]butyl]-1H-imidazol-2-yl]-1-ethanol]
19 | 91 to 93 | Cc1ccccc1/C=C/c1nc(COc2ccc(CCCCn3ccnc3CCO)cc2)co1 [Reference Example B12, 2-[1-[4-[4-[[2-[(E)-2-(2-methylphenyl)ethenyl]-1,3-oxazol-4-yl]methoxy]phenyl]butyl]-1H-imidazol-2-yl]-1-ethanol]
20 | 126 to 128 | OCC(O)Cc1nccn1CCCCc1ccc(OCc2coc(/C=C/c3ccc(F)cc3F)n2)cc1 (stereo not shown) [Reference Example B26, 3-(1-{4-[4-({2-[(E)-2-(2,4-difluorophenyl)ethenyl]-1,3-oxazol-4-yl}methoxy)phenyl]butyl}-1H-imidazol-2-yl)-1,2-propanediol]
21 | 115 to 116 | FC(F)(F)c1ccc(/C=C/c2nc(COc3cccc(CCCn4ccnn4)c3)co2)cc1 [Reference Example B6, 1-(3-{3-[(2-{(E)-2-[4-(trifluoromethyl)phenyl]ethenyl}-1,3-oxazol-4-yl)methoxy]phenyl}propyl)-1H-1,2,3-triazole]
22 | 124 to 125 | Fc1ccc(/C=C/c2nc(COc3ccc(CCCCn4ccnn4)cc3)co2)cc1 [Reference Example B2, 1-{4-[4-({2-[(E)-2-(4-fluorophenyl)ethenyl]-1,3-oxazol-4-yl}methoxy)phenyl]butyl}-1H-1,2,3-triazole]
